# Reference: patent US20240116985A1, “STAPLED PEPTIDES AND METHODS THEREOF” (priority 2020, published 2024)
# Like-named read-outs stand apart in the source and are kept apart here.
# Tests used:
# Solubility in PBS = format: physicochemical
# In short: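 Solubility is derived from HPLC peak areas: the ratio of the PBS supernatant peak to a 50 μM DMSO peptide peak, times 50 uM.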
# [1] = molecular target: T1, beta-catenin/TCF4 engagement (Homo sapiens, UniProt P35222); experiment: Nano-BRET target engagement assay (B-cat-Halo & TCF4-Luc in HEK293 cells); format: cell-based
# T1 construct: expressed in transfected cells; host or cells: HEK293
# T1 sequence (P35222 1-781): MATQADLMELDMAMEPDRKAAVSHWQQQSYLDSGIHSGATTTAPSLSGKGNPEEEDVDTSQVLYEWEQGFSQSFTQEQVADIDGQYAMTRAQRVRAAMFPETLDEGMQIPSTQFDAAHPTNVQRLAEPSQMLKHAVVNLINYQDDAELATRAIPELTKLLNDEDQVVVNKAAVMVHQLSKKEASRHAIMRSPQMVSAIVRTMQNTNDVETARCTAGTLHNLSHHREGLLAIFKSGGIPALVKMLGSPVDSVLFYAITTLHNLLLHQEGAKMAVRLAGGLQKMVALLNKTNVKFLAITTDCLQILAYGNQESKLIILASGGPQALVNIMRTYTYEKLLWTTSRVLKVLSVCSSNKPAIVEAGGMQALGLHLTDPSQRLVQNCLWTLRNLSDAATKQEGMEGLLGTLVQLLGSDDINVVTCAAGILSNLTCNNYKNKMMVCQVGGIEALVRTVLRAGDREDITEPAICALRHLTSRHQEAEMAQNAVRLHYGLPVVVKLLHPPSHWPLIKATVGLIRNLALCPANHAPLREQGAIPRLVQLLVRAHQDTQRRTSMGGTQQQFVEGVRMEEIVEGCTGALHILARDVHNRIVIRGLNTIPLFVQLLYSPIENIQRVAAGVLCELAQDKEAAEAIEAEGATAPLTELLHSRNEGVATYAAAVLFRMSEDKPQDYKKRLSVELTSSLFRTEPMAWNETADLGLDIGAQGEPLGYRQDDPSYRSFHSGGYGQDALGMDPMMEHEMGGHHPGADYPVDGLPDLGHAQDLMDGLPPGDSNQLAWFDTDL
# [2] = molecular target: T2, full-length beta-Catenin (Uniprot ID P35222) (Homo sapiens, UniProt P35222); experiment: Fluorescence polarization IC50 (beta-catenin / 5FAM-TCF4 10-53 competition); format: binding
# T2 construct: 10 nM full-length beta-Catenin (Uniprot ID P35222)
# T2 sequence (P35222 1-781): T1 sequence (P35222 1-781)
# CHI Log D procedure = format: physicochemical; conditions: pH 7.4, CHI Log D
# [3] = absolute IC50, read-out: NanoBRET Abs IC50
Solubility (Solubility in PBS; Solubility (uM)),"IC50 [1, 3]",IC50 ([2]; read-out: beta-Catenin FP IC50),chromatographic logD (CHI Log D procedure),Solubility (Solubility in PBS),IC50 ([1]; read-out: NanoBRET IC50),"inhibition at 10 µM ([1]; HEK293, 10 uM, read-out: NanoBRET % inh @ 10 uM)","IC50 ([2]; fluorescence polarization, beta-catenin, read-out: FP EC50)",IC50 ([1]; read-out: NanoBRET Abs IC50),logD (CHI Log D procedure),SMILES
32 µM,22.3 µM,16 nM,2.19,–,–,–,–,–,–,"CC(=O)N1CCC[C@]12CC=CCCCC1(CCCC=CCCCOC(=O)N3CC[C@@](C(=O)N[C@@H](Cc4ccsc4)C(=O)N[C@@H](Cc4csc5ccccc45)C(=O)N[C@@H](CCC(N)=O)C(N)=O)(C3)NC(=O)[C@H](CC(N)=O)NC(=O)[C@H](Cc3ccccc3)NC(=O)[C@H](C)NC(=O)[C@H](C)NC(=O)[C@H](CCCNC(N)=O)NC(=O)[C@H](CC(=O)O)NC1=O)NC(=O)[C@H](CC(C)(C)C)NC(=O)[C@H](CC(=O)O)NC2=O (stereo partly drawn) [I-840, Ac-PL3-Asp-Npg-B5-Asp-Cit-Ala-Ala-Phe-Asn-PyrS2-3Thi-BztA-Gln-NH2]"
14 µM,34.4 µM,12 nM,2.26,–,–,–,–,–,–,"CC(=O)N1CCC[C@]12CC=CCCCC1(CCCC=CCCCOC(=O)N3CC[C@@](C(=O)N[C@@H](Cc4ccsc4)C(=O)N[C@@H](Cc4csc5ccccc45)C(=O)N[C@@H](Cc4c[nH]cn4)C(N)=O)(C3)NC(=O)[C@H](CC(N)=O)NC(=O)[C@H](Cc3ccccc3)NC(=O)[C@H](C)NC(=O)[C@H](C)NC(=O)[C@H](CCCNC(N)=O)NC(=O)[C@H](CC(=O)O)NC1=O)NC(=O)[C@H](CC(C)(C)C)NC(=O)[C@H](CC(=O)O)NC2=O (stereo partly drawn) [I-841, Ac-PL3-Asp-Npg-B5-Asp-Cit-Ala-Ala-Phe-Asn-PyrS2-3Thi-BztA-His-NH2]"
–,47.9 µM,34 nM,2.39,10 µM,–,–,–,–,–,"CC(=O)N1CCC[C@]12CC=CCCCC1(CCCC=CCCCOC(=O)N3CC[C@@](C(=O)N[C@@H](Cc4ccsc4)C(=O)N[C@@H](Cc4csc5ccccc45)C(=O)N[C@@H](CCC(N)=O)C(N)=O)(C3)NC(=O)[C@H](CC(N)=O)NC(=O)[C@H](Cc3ccccc3)NC(=O)[C@H](C)NC(=O)[C@H](C)NC(=O)[C@H](Cc3ccc(O)cc3)NC(=O)[C@H](CC(=O)O)NC1=O)NC(=O)[C@H](CC(C)(C)C)NC(=O)[C@H](CC(=O)O)NC2=O (stereo partly drawn) [I-842, Ac-PL3-Asp-Npg-B5-Asp-Tyr-Ala-Ala-Phe-Asn-PyrS2-3Thi-BztA-Gln-NH2]"
35 µM,–,6 nM,2.31,–,10.7 µM,–,–,–,–,"CC(=O)N1CCC[C@]12CC=CCCCC1(CCCC=CCCCOC(=O)N3CC[C@@](C(=O)N[C@@H](Cc4ccsc4)C(=O)N[C@@H](Cc4csc5ccccc45)C(=O)N[C@@H](CCC(N)=O)C(N)=O)(C3)NC(=O)[C@H](CC(N)=O)NC(=O)[C@H](Cc3ccccc3)NC(=O)[C@H](C)NC(=O)[C@H](C)NC(=O)[C@H]([C@@H](C)O)NC(=O)[C@H](CC(=O)O)NC1=O)NC(=O)[C@H](CC(C)(C)C)NC(=O)[C@H](CC(=O)O)NC2=O (stereo partly drawn) [I-844, Ac-PL3-Asp-Npg-B5-Asp-Thr-Ala-Ala-Phe-Asn-PyrS2-3Thi-BztA-Gln-NH2]"
18 µM,–,56 nM,2.42,–,–,4.3%,35 nM,–,–,"CC(=O)N1CCC[C@]12CC=CCCCC1(CCCC=CCCCOC(=O)N3CC[C@@](C(=O)N[C@@H](Cc4ccsc4)C(=O)N[C@@H](Cc4csc5ccccc45)C(=O)N[C@@H](CCC(N)=O)C(N)=O)(C3)NC(=O)[C@H](CC(N)=O)NC(=O)[C@H](Cc3ccccc3)NC(=O)[C@H](C)NC(=O)[C@H](C)NC(=O)[C@H](CC(C)C)NC(=O)[C@H](CC(=O)O)NC1=O)NC(=O)[C@H](CC(C)(C)C)NC(=O)[C@H](CC(=O)O)NC2=O (stereo partly drawn) [I-846, Ac-PL3-Asp-Npg-B5-Asp-Leu-Ala-Ala-Phe-Asn-PyrS2-3Thi-BztA-Gln-NH2]"
–,–,28 nM,2.51,10 µM,–,–,–,> 20 µM,–,"CC(=O)N1CCC[C@]12CC=CCCCC1(CCCC=CCCCOC(=O)N3CC[C@@](C(=O)N[C@@H](Cc4ccsc4)C(=O)N[C@@H](Cc4csc5ccccc45)C(=O)N[C@@H](Cc4c[nH]cn4)C(N)=O)(C3)NC(=O)[C@H](CC(N)=O)NC(=O)[C@H](Cc3ccccc3)NC(=O)[C@H](C)NC(=O)[C@H](C)NC(=O)[C@H](CC(C)C)NC(=O)[C@H](CC(=O)O)NC1=O)NC(=O)[C@H](CC(C)(C)C)NC(=O)[C@H](CC(=O)O)NC2=O (stereo partly drawn) [I-847, Ac-PL3-Asp-Npg-B5-Asp-Leu-Ala-Ala-Phe-Asn-PyrS2-3Thi-BztA-His-NH2]"
–,–,15 nM,2.58,10 µM,50.6 µM,–,–,30.6 µM,–,"CC(=O)N1CCC[C@]12CC=CCCCC1(CCCC=CCCCOC(=O)N3CC[C@@](C(=O)N[C@@H](Cc4ccsc4)C(=O)N[C@@H](Cc4csc5ccccc45)C(N)=O)(C3)NC(=O)[C@H](CC(N)=O)NC(=O)[C@H](Cc3ccccc3)NC(=O)[C@H](C)NC(=O)[C@H](C)NC(=O)[C@H](CC(N)=O)NC(=O)[C@H](CC(=O)O)NC1=O)NC(=O)[C@H](CC(C)(C)C)NC(=O)[C@H](CC(=O)O)NC2=O (stereo partly drawn) [I-857, Ac-PL3-Asp-Npg-B5-Asp-Asn-Ala-Ala-Phe-Asn-PyrS2-3Thi-BztA-NH2]"
18 µM,–,34 nM,2.54,–,–,–,–,> 20 µM,–,"CC(=O)N1CCC[C@]12CC=CCCCC1(CCCC=CCCCOC(=O)N3CC[C@@](C(=O)N[C@@H](Cc4ccsc4)C(=O)N[C@@H](Cc4csc5ccccc45)C(N)=O)(C3)NC(=O)[C@H](CC(N)=O)NC(=O)[C@H](Cc3ccccc3)NC(=O)[C@H](C)NC(=O)[C@H](C)NC(=O)[C@H](CCC(N)=O)NC(=O)[C@H](CC(=O)O)NC1=O)NC(=O)[C@H](CC(C)(C)C)NC(=O)[C@H](CC(=O)O)NC2=O (stereo partly drawn) [I-858, Ac-PL3-Asp-Npg-B5-Asp-Gln-Ala-Ala-Phe-Asn-PyrS2-3Thi-BztA-NH2]"
–,–,22 nM,–,10 µM,–,–,–,> 20 µM,2.28,"CC(=O)N1CCC[C@]12CC=CCCCC1(CCCC=CCCCOC(=O)N3CC[C@@](C(=O)N[C@@H](Cc4ccsc4)C(=O)N[C@@H](Cc4csc5ccccc45)C(N)=O)(C3)NC(=O)[C@H](CC(N)=O)NC(=O)[C@H](Cc3ccccc3)NC(=O)[C@H](C)NC(=O)[C@H](C)NC(=O)[C@H](Cc3c[nH]cn3)NC(=O)[C@H](CC(=O)O)NC1=O)NC(=O)[C@H](CC(C)(C)C)NC(=O)[C@H](CC(=O)O)NC2=O (stereo partly drawn) [I-863, Ac-PL3-Asp-Npg-B5-Asp-His-Ala-Ala-Phe-Asn-PyrS2-3Thi-BztA-NH2]"
–,–,12 nM,2.62,10 µM,29.1 µM,–,–,40 µM,–,"CC(=O)N1CCC[C@]12CC=CCCCC1(CCCC=CCCCOC(=O)N3CC[C@@](C(=O)N[C@@H](Cc4ccsc4)C(=O)N[C@@H](Cc4csc5ccccc45)C(=O)N[C@@H](CCC(N)=O)C(N)=O)(C3)NC(=O)[C@H](CC(N)=O)NC(=O)[C@H](Cc3ccccc3)NC(=O)[C@H](C)NC(=O)[C@H](C)NC(=O)[C@H](Cc3c[nH]cn3)NC(=O)[C@H](CC(=O)O)NC1=O)NC(=O)[C@H](CC(C)(C)C)NC(=O)[C@H](CC(=O)O)NC2=O (stereo partly drawn) [I-864, Ac-PL3-Asp-Npg-B5-Asp-His-Ala-Ala-Phe-Asn-PyrS2-3Thi-BztA-Gln-NH2]"
34 µM,–,14 nM,2.11,–,–,–,–,> 20 µM,–,"CC(=O)N1CCC[C@]12CC=CCCCC1(CCCC=CCCCOC(=O)N3CC[C@@](C(=O)N[C@@H](Cc4ccsc4)C(=O)N[C@@H](Cc4csc5ccccc45)C(=O)N[C@@H](CCC(N)=O)C(N)=O)(C3)NC(=O)[C@H](CC(N)=O)NC(=O)[C@H](Cc3ccccc3)NC(=O)[C@H](CCCCNC(=O)CCc3cccc4ccccc34)NC(=O)[C@H](C)NC(=O)[C@H](CC(=O)O)NC(=O)[C@H](CC(=O)O)NC1=O)NC(=O)[C@H](CC(C)(C)C)NC(=O)[C@H](CC(=O)O)NC2=O (stereo partly drawn) [I-884, Ac-PL3-Asp-Npg-B5-Asp-Asp-Ala-[1NapPr]Lys-Phe-Asn-PyrS2-3Thi-BztA-Gln-NH2]"
43 µM,–,32 nM,2.39,–,–,–,–,> 20 µM,–,"CC(=O)N1CCC[C@]12CC=CCCCC1(CCCC=CCCCOC(=O)N3CC[C@@](C(=O)N[C@@H](Cc4ccsc4)C(=O)N[C@@H](Cc4csc5ccccc45)C(=O)N[C@@H](CCC(N)=O)C(N)=O)(C3)NC(=O)[C@H](CC(N)=O)NC(=O)[C@H](Cc3ccccc3)NC(=O)[C@H](CCCCNC(=O)C(C)(c3ccccc3)c3ccccc3)NC(=O)[C@H](C)NC(=O)[C@H](CC(=O)O)NC(=O)[C@H](CC(=O)O)NC1=O)NC(=O)[C@H](CC(C)(C)C)NC(=O)[C@H](CC(=O)O)NC2=O (stereo partly drawn) [I-885, Ac-PL3-Asp-Npg-B5-Asp-Asp-Ala-[22PhPr]Lys-Phe-Asn-PyrS2-3Thi-BztA-Gln-NH2]"
